Assay results: publication PMC9699003, “Arene Variation of Highly Cytotoxic Tridentate Naphthoquinone-Based Ruthenium(II) Complexes and In-Depth In Vitro Studies” (Pharmaceutics, 2022)

Tests used:
SW480 cells [1] = test: Apoptosis assay (annexin V-FITC/PI, flow cytometry); conditions: SW480, 24 h; for early apoptotic cells / late apoptotic cells / necrotic cells / viable cells: mean ± SD; for Apoptosis / necrosis induction (in words): concentrations covering the IC50 range
Procedure: Cell death induction was quantitatively analyzed via flow cytometry using double staining with FITC-conjugated annexin V (eBioscience, San Diego, CA, USA) and propidium iodide (PI, 1.0 mg/mL, Sigma-Aldrich). SW480 cells were seeded into 24-well plates (7 × 10^4 cells/well) in 600 µL MEM per well and allowed to settle for 24 h. Afterward, cells were exposed to two or three different concentrations (0.1–100 µM) of the compounds (based on their cytotoxic activity) for 24 h. After treatment, the medium was collected, and cells were washed once with 37 °C warm PBS and harvested. Following trypsinization, the cell suspension was added to the pre-collected medium and cells were centrifuged (300 g, 3 min). The supernatant was removed, and the cell pellet was resuspended with 1.5 µL FITC-conjugated annexin V in 150 µL binding buffer (10 mM HEPES/NaOH pH 7.4, 140 mM NaCl and 2.5 mM CaCl2) and incubated at 37 °C for 15 min. An amount of 1 µL of propidium iodide (PI, Thermo Fisher) was added shortly before flow-cytometric analysis using a Guava easyCyte 8HT instrument (Merck Millipore, Burlington, MA, USA) with InCyte software. Results were quantified by using the FlowJo software (TreeStar). At least three independent experiments were conducted.

[2] = test system: CH1/PA-1 ovarian teratocarcinoma cells; test: MTT assay (cytotoxicity); type: cell-based, human; conditions: CH1/PA-1, MTT
Procedure: (§1) CH1/PA-1 ovarian teratocarcinoma cells (provided by L. R. Kelland, CRC Centre for Cancer Therapeutics, Institute of Cancer Research, Sutton, UK; confirmed by STR profiling as PA-1 ovarian teratocarcinoma cells at Multiplexion, Heidelberg, Germany), SW480 colon carcinoma and A549 non-small cell lung cancer cells (both obtained from the American Type Culture Collection, Manassas, VA, USA) were grown as adherent cultures in 75 cm² culture flasks (CytoOne, Starlab, Hamburg, Germany) by using minimal essential medium (MEM) supplemented with 1 mM sodium pyruvate, 4 mM L-glutamine, 1% (v/v) nonessential amino acids from 100-fold stock (all purchased from Sigma-Aldrich) and 10% heat-inactivated fetal bovine serum (BioWest, Nuaillé, France). Cells were maintained under standard culture conditions with 5% CO2 at 37 °C in a humidified atmosphere.
(§2) The 3-(4,5-dimethylthiazol-2-yl)-2,5-diphenyl-2H-tetrazolium bromide (MTT, Acros Organics, Geel, Belgium) assay was used to detect the cytotoxicity of the compounds after 24 h and 96 h incubation. In brief, cells were harvested from culture flasks and the following cell numbers (each in 100 µL) were seeded into 96-well culture plates (CytoOne, tissue culture treated, Starlab, Hamburg, Germany) for 24 h incubation: 1 × 10^4 (CH1/PA-1), 1 × 10^4 (SW480) and 1.5 × 10^4 (A549) cells per well; and for 96 h incubation: 1 × 10^3 (CH1/PA-1), 2 × 10^3 (SW480) and 3 × 10^3 (A549) cells per well. After 24 h, cells resuming their exponential growth rate were treated with test compounds at nine concentrations obtained by serial two-fold dilution. Stock solutions were prepared in DMSO (20 mM or 40 mM) and diluted in supplemented MEM. An amount of 100 µL of each concentration was added to the plates in triplicates and cells were exposed for 24 or 96 h. Afterward, the medium was replaced with 100 µL of MTT solution (5 mg/mL) in phosphate-buffered saline (PBS, Sigma-Aldrich), diluted 1:7 in RPMI 1640 medium (supplemented with 4 mM L-glutamine and 10% heat-inactivated FBS). Upon cell-viability-dependent conversion of the yellow, water-soluble tetrazolium salt into purple formazan products for 4 h, the crystals were dissolved in 150 µL DMSO. The absorbance of the resulting solutions, which is directly proportional to the number of viable cells, was measured at 550 nm (and at 690 nm as a reference) with a microplate reader (ELx808, BioTek, Winoosky, VT, USA) and Gen5TM 3.08 software (BioTek). Blank-corrected optical densities were subjected to graphical evaluation and interpolation of IC50 values. At least three biologically and technically independent experiments were performed.

[3] = test system: SW480 colon carcinoma cells; test: MTT assay (cytotoxicity); type: cell-based, human
Procedure: as §1, §2

[4] = test system: A549 non-small cell lung cancer cells; test: MTT assay (cytotoxicity); type: cell-based, human
Procedure: as §1, §2

SW480 cells [5] = test: Colony formation assay; type: cell-based, human; conditions: SW480, 11 days, relative to untreated control
Procedure: For the colony formation assay, SW480 cells were seeded at a density of 350 cells/2 mL into each well of 6-well plates (CytoOne, tissue culture treated) and left to adhere for 24 h. To determine the long-term effects of the test compounds, the cells were exposed to them for 11 days at 37 °C and 5% CO2. After incubation, the wells were gently washed with 1 mL cold PBS and the colonies were fixed with 1 mL cold (4 °C) 100% methanol (Thermo Fisher, Waltham, MA, USA) for 30 min at 4 °C and washed with 1 mL PBS again. The fixed colonies were stained with 1 mL of 0.5% w/v crystal violet (Sigma-Aldrich) in methanol for 2 min and the plates were washed under tap water. After drying the plates, images of the wells were captured, and colonies were counted with the colony counting function of Fusion Fx7 software (Vilber Lourmat, Collégien, France). Results were normalized to untreated controls. Data are averaged from at least three independent experiments.

SW480 cells [6] = test: Cellular ruthenium accumulation (ICP-MS); type: cell-based, human; conditions: SW480, 2 h incubation, 37 °C
Procedure: SW480 cells were seeded at densities of 1.8 × 10^5 cells/well in 12-well plates (CytoOne, tissue culture treated) in 1 mL of supplemented MEM per well. (As CH1/PA-1 cells tend to detach during the required washing steps, cellular accumulation studies were performed only in SW480 cells). After 24 h, compounds dissolved in DMSO and diluted in MEM were added to the cells to final concentrations of 2 µM and 5 µM, and cells were incubated at 37 °C for 2 h. During incubation, the cell number was determined from three control wells of a plate seeded in parallel to the treatment plates. After the 2 h incubation, the medium was removed and all wells were washed with 3 × 1 mL PBS, and cells were lysed by adding 400 µL HNO3 per well for 1 h at room temperature. An amount of 300 µL of each lysate was added to 7.7 mL MilliQ water to get a total volume of 8 mL, and determination of the ruthenium content was carried out by ICP-MS. The measured amount of accumulated metal was normalized to the cell number and results were given in fg [Ru]/cell from at least three independent experiments. An Agilent 7800 ICP-MS instrument (Agilent Technologies, Tokyo, Japan) equipped with an Agilent SPS 4 autosampler (Agilent Technologies, Tokyo, Japan) was used to determine the ruthenium content. The ICP-MS parameters were tuned on a daily base to achieve high sensitivity. The ICP-MS was equipped with a MicroMist nebulizer with a sample uptake rate of ∼0.2 mL/min and standard nickel cones. The Agilent MassHunter software package (Workstation Software, Version C.01.04, 2018) was used for data evaluation. The instrumental parameters can be found in the supplementary information (Table S9).

[7] = Homo sapiens, read-out: viable cells

| SMILES | early apoptotic cells (SW480 cells [1]; 0.1 µM) [%] | late apoptotic cells (SW480 cells [1]; 0.1 µM) [%] | necrotic cells (SW480 cells [1]; 0.1 µM) [%] | viable cells (SW480 cells [1]; 0.1 µM) [%] | early apoptotic cells (SW480 cells [1]; 1 µM) [%] | late apoptotic cells (SW480 cells [1]; 1 µM) [%] | necrotic cells (SW480 cells [1]; 1 µM) [%] | viable cells (SW480 cells [1]; 1 µM) [%] | early apoptotic cells (SW480 cells [1]; 10 µM) [%] | late apoptotic cells (SW480 cells [1]; 10 µM) [%] | necrotic cells (SW480 cells [1]; 10 µM) [%] | viable cells (SW480 cells [1]; 10 µM) [%] | IC50 ([2]; 24 h exposure) [µM] | IC50 ([3]; 24 h exposure) [µM] | IC50 ([4]; 24 h exposure) [µM] | Ru [102]/cell (cellular accumulation) (SW480 cells [6]; 2 µM) [fg] | Ru [102]/cell (cellular accumulation) (SW480 cells [6]; 5 µM) [fg] | IC50 ([2]; 96 h exposure) [µM] | IC50 ([3]; 96 h exposure) [µM] | IC50 ([4]; 96 h exposure) [µM] | other results |
| --- | --- | --- | --- | --- | --- | --- | --- | --- | --- | --- | --- | --- | --- | --- | --- | --- | --- | --- | --- | --- | --- |
| CC1=C([O-])C([O-])(n2cccn2)c2ccccc2C1=O.Cc1ccc(C(C)C)cc1.[Ru+2] (racemic) [Compound 1] | 3.7 ± 3.1 | 3.6 ± 2.6 | 0.77 ± 0.33 | 92 ± 6 | 1.3 ± 0.5 | 4.9 ± 2.8 | 1.2 ± 0.8 | 93 ± 4 | 16 ± 1 | 64 ± 6 | 6.7 ± 3.1 | 13 ± 3 | 59 ± 18 | 0.46 ± 0.14 | 3.8 ± 2.6 | 97 ± 8 | 299 ± 54 | – | – | – | Apoptosis / necrosis induction (in words) (SW480 cells [1]): induced apoptosis to a high extent; Number of colonies (SW480 cells [5]; 0.039 µM): 18 ± 5%; Number of colonies (SW480 cells [5]; 0.078 µM): 3.1 ± 0.8%; Number of colonies (SW480 cells [5]; 0.16 µM): 0.26 ± 0.43% |
| CC1=C([O-])C([O-])(n2cccn2)c2ccccc2C1=O.[Ru+2].c1ccccc1 (racemic) [Compound 2] | – | – | – | – | 1.1 ± 0.4 | 2.0 ± 0.2 | 1.4 ± 0.8 | 95 ± 1 | 1.0 ± 0.3 | 2.0 ± 0.3 | 1.5 ± 0.8 | 96 ± 1 | 170 ± 23 | 31 ± 3 | > 200 | 4.5 ± 0.3 | 11 ± 2 | 157 ± 8 | 9.9 ± 2.5 | 141 ± 38 | Number of colonies (SW480 cells [5]; 5 µM): 48 ± 9%; Number of colonies (SW480 cells [5]; 10 µM): 20 ± 4%; Number of colonies (SW480 cells [5]; 20 µM): 3.5 ± 1.5% |
| CC1=C([O-])C([O-])(n2cccn2)c2ccccc2C1=O.Cc1ccccc1.[Ru+2] (racemic) [Compound 3] | – | – | – | – | 1.0 ± 0.7 | 2.1 ± 0.3 | 1.0 ± 0.5 | 96 ± 1 | 0.7 ± 0.3 | 2.1 ± 0.7 | 0.72 ± 0.49 | 97 ± 1 | 121 ± 18 | 11 ± 2 | > 200 | 15 ± 2 | 33 ± 10 | 138 ± 10 | 2.8 ± 0.7 | 72 ± 12 | Number of colonies (SW480 cells [5]; 1.25 µM): 53 ± 8%; Number of colonies (SW480 cells [5]; 2.5 µM): 23 ± 8%; Number of colonies (SW480 cells [5]; 5 µM): 4.3 ± 3.7% |
| CC1=C([O-])C([O-])(n2cccn2)c2ccccc2C1=O.[Ru+2].c1ccc2c(c1)CCC2 (racemic) [Compound 4] | 1.1 ± 0.5 | 2.1 ± 0.4 | 1.7 ± 1.1 | 95 ± 2 | 1.1 ± 0.7 | 2.4 ± 1.2 | 0.93 ± 0.65 | 96 ± 2 | 1.0 ± 0.4 | 8.3 ± 4.9 | 3.4 ± 4.0 | 87 ± 8 | 146 ± 18 | 3.5 ± 1.6 | 119 ± 21 | 44 ± 3 | 100 ± 15 | 88 ± 10 | 0.52 ± 0.09 | 9.1 ± 1.5 | Number of colonies (SW480 cells [5]; 0.31 µM): 22 ± 5%; Number of colonies (SW480 cells [5]; 0.63 µM): 5.1 ± 2.1%; Number of colonies (SW480 cells [5]; 1.25 µM): 0.82 ± 0.85% |
| CC1=C([O-])C([O-])(n2cccn2)c2ccccc2C1=O.[Ru+2].c1ccc(-c2ccccc2)cc1 (racemic) [Compound 5] | 3.0 ± 2.2 | 2.9 ± 1.5 | 1.0 ± 0.5 | 93 ± 4 | 1.0 ± 0.5 | 3.3 ± 1.3 | 0.85 ± 0.48 | 95 ± 2 | 25 ± 7 | 40 ± 6 | 6.3 ± 2.2 | 29 ± 11 | 42 ± 4 | 0.77 ± 0.24 | 4.3 ± 1.6 | 107 ± 14 | 336 ± 10 | 30 ± 3 | 0.072 ± 0.019 | 1.2 ± 0.2 | Apoptosis / necrosis induction (in words) (SW480 cells [1]): induced apoptosis to a high extent; Number of colonies (SW480 cells [5]; 0.039 µM): 19 ± 7%; Number of colonies (SW480 cells [5]; 0.078 µM): 4.0 ± 2.0%; Number of colonies (SW480 cells [5]; 0.16 µM): 0.22 ± 0.48% |
| CC1=C(O)C(=O)c2ccccc2C1=O [L, 2-Hydroxy-3-methyl-1,4-naphthoquinone] | – | – | – | – | – | – | – | – | 1.0 ± 0.5 | 1.6 ± 0.2 | 0.61 ± 0.44 | – | – | – | – | – | – | – | – | – | viability at 10 µM (SW480 cells [1]; [7]): 97 ± 1%; viability at 100 µM (SW480 cells [1]; [7]): 96%; early apoptotic cells (SW480 cells [1]; 100 µM): 1.0 ± 0.2%; late apoptotic cells (SW480 cells [1]; 100 µM): 1.9 ± 0.2%; necrotic cells (SW480 cells [1]; 100 µM): 0.86 ± 0.33%; Apoptosis / necrosis induction (in words) (SW480 cells [1]): did not induce any of these processes; IC50 ([2]; Homo sapiens, 24 h exposure): > 400 µM; IC50 ([3]; Homo sapiens, 24 h exposure): > 400 µM; IC50 ([4]; Homo sapiens, 24 h exposure): > 400 µM; Number of colonies (SW480 cells [5]; 50 µM): 62 ± 25%; Number of colonies (SW480 cells [5]; 150 µM): 0 ± 0% |
